Here are results for one molecule from BindingDB's records for doi:10.1021/acs.jmedchem.7b01344 (Metabasis Therapeutics, 2017).

Test [1] addresses Prostaglandin D2 receptor 2 (CRTH2) (Homo sapiens) (UniProt Q9Y5Y4). As to the kind of experiment: Binding affinity to DP2 receptor (unknown origin).
For test [2] the target is unchanged. As to the kind of experiment: Binding affinity to DP2 receptor (unknown origin) in presence of 10% human serum.

Chain of Prostaglandin D2 receptor 2 (CRTH2) (Homo sapiens) (Q9Y5Y4 whole entry, looked up): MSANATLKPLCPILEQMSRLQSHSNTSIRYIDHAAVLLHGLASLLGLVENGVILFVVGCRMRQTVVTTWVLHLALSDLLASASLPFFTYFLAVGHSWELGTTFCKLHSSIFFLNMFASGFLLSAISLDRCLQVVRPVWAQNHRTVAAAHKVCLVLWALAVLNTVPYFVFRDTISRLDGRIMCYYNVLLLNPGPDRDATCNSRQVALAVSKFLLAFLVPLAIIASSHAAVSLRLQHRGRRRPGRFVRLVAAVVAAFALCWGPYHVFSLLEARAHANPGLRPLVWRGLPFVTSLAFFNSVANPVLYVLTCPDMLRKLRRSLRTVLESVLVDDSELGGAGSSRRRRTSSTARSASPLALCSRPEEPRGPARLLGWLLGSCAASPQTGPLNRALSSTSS

Turning to `Cc1ccc(Oc2nc3cc(-c4ccc(-c5ccccc5)cc4)c(Cl)cc3[nH]2)cc1C(=O)O`, the IC50 in test [1] is 1800 nM; in test [2] it was greater than 86 µM.

In general, IC50 refers to the concentration at which inhibition is half-maximal.
